Test results taken from ChEMBL document CHEMBL3137667, “[Drug-induced liver injury; fourteenth updated edition of the bibliographic database of liver injuries and related drugs]” (Gastroenterol Clin Biol, 2004).

Legend:
[1] = human, serum, 4383 h
[2] = Comments (NB not yet translated). [column 'COMMENTAIRES' in source]; conditions: human
[3] = human
[4] = Proposed mechanism(s) of liver damage. [column 'MEC' in source]; conditions: human
[5] = Highest frequency of acute liver toxicity observed during clinical trials, expressed as a percentage. [column '% AIGUE' in source]; conditions: human
[6] = human; remark: listed apart in the source
[7] = human; remark: listed apart in the source
[8] = human; remark: listed apart in the source
[9] = Times to onset, minimal and maximal, observed in the indexed observations. [column 'DELAI' in source]; conditions: human
[10] = human; remark: listed apart in the source
[11] = human, serum
[12] = human; remark: listed apart in the source
[13] = human, serum; remark: listed apart in the source
[14] = human; remark: listed apart in the source
[15] = Highest frequency of moderate liver toxicity observed during clinical trials, expressed as a percentage. [column '% BIOL' in source]; conditions: human
[16] = human; remark: listed apart in the source
[17] = human; remark: listed apart in the source
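For Hepatotoxicity (association with vascular disease) in this document: count of indexed literature references reporting vascular liver injury in humans, e.g. peliosis hepatitis, hepatic veno-occlusive disease or Budd-Chiari syndrome.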
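For Hepatotoxicity (benign tumour) in this document: value is a count of indexed literature references citing a benign tumour confirmed by histopathology.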
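For Hepatotoxicity (choleostasis) in this document: human cholestatic liver injury, shown by histopathology or by peak ALT or AST elevation over alkaline phosphatase ratio below 2, value counts indexed literature reports.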
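For Hepatotoxicity (chronic liver disease) in this document: chronic liver injury confirmed by histopathology or persistently raised serum aminotransferase activity beyond 6 months, value given as the count of indexed literature references.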
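For Hepatotoxicity (cirrhosis) in this document: value is a count of indexed literature references reporting cirrhosis confirmed by histopathology.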
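For Hepatotoxicity (cytolytic) in this document: human cytolytic liver injury, shown by histopathology or by a ratio above 5 of peak ALT or AST elevation to alkaline phosphatase elevation, value counts indexed references.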
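For Hepatotoxicity (granulomatous hepatitis) in this document: value is a count of indexed literature references reporting granulomatous liver disease confirmed by histopathology.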
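For Hepatotoxicity (malignant tumour) in this document: malignant tumour confirmed by histopathology, value gives the count of indexed literature references reporting it.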
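For Hepatotoxicity (severe hepatitis) in this document: human clinical data: severe hepatitis, meaning potentially life-threatening liver failure or clinically observed cases, the value counts how many indexed literature references report it.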
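For Hepatotoxicity (steatosis) in this document: steatosis confirmed by histopathology, value is the count of indexed references.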

COc1cc([C@@H]2c3cc4c(cc3[C@@H](O[C@@H]3O[C@@H]5CO[C@@H](C)O[C@H]5[C@H](O)[C@H]3O)[C@H]3COC(=O)[C@H]23)OCO4)cc(OC)c1O [ETOPOSIDE]
Hepatotoxicity (chronic liver disease) [1]: 0
Hepatotoxicity (comment) [2]: MVO
Hepatotoxicity (benign tumour) [3]: 0
Hepatotoxicity (mechanism) ([4]; Liver): Dose-dependant
Hepatotoxicity (acute) ([5]; Liver): 1%
Hepatotoxicity (severe hepatitis) ([6]; Liver): 5
Hepatotoxicity (choleostasis) ([7]; Liver): 2
Hepatotoxicity (association with vascular disease) [8]: 10
Hepatotoxicity (time to onset) [9]: 1 week - 5 weeks
Hepatotoxicity (steatosis) [10]: 0
Hepatotoxicity (acute) [11]: 4
Hepatotoxicity (cytolytic) ([12]; Liver): 2
Hepatotoxicity (moderate) [13]: 24
Hepatotoxicity (cirrhosis) [14]: 0
Hepatotoxicity (moderate) ([15]; Liver): 50%
Hepatotoxicity (granulomatous hepatitis) ([16]; Liver): 0
Hepatotoxicity (malignant tumour) [17]: 0

O=C(c1cc(O)c(O)c(O)c1)c1ccc(O)c(O)c1O [EXIFONE]
Hepatotoxicity (chronic liver disease) [1]: 0
Hepatotoxicity (comment) [2]: AC_ANTI-ML/-N
Hepatotoxicity (benign tumour) [3]: 0
Hepatotoxicity (mechanism) [4]: Allergic, Toxic
Hepatotoxicity (acute) [5]: 0%
Hepatotoxicity (severe hepatitis) [6]: 4
Hepatotoxicity (choleostasis) [7]: 0
Hepatotoxicity (association with vascular disease) [8]: 0
Hepatotoxicity (time to onset) [9]: 3 weeks - 8 months
Hepatotoxicity (steatosis) [10]: 0
Hepatotoxicity (acute) [11]: 9
Hepatotoxicity (cytolytic) [12]: 9
Hepatotoxicity (moderate) [13]: 0
Hepatotoxicity (cirrhosis) [14]: 0
Hepatotoxicity (moderate) [15]: 0%
Hepatotoxicity (granulomatous hepatitis) [16]: 0
Hepatotoxicity (malignant tumour) [17]: 0

COCCCC/C(=N\OCCN)c1ccc(C(F)(F)F)cc1 [FLUVOXAMINE]
Hepatotoxicity (chronic liver disease) [1]: 0
Hepatotoxicity (comment) [2]: SURDOSAGE
Hepatotoxicity (benign tumour) [3]: 0
Hepatotoxicity (mechanism) [4]: Dose-dependant
Hepatotoxicity (acute) [5]: 0%
Hepatotoxicity (severe hepatitis) [6]: 0
Hepatotoxicity (choleostasis) [7]: 2
Hepatotoxicity (association with vascular disease) [8]: 0
Hepatotoxicity (time to onset) [9]: 4 days - 4 months
Hepatotoxicity (steatosis) [10]: 0
Hepatotoxicity (acute) [11]: 3
Hepatotoxicity (cytolytic) [12]: 1
Hepatotoxicity (moderate) [13]: 5
Hepatotoxicity (cirrhosis) [14]: 0
Hepatotoxicity (moderate) [15]: 0%
Hepatotoxicity (granulomatous hepatitis) [16]: 0
Hepatotoxicity (malignant tumour) [17]: 0

CC(=O)O[C@H]1C[C@@]2(C)[C@@H](C[C@@H](O)[C@H]3[C@@]4(C)CC[C@@H](O)[C@@H](C)[C@@H]4CC[C@@]32C)/C1=C(\CCC=C(C)C)C(=O)O [FUSIDIC ACID]
Hepatotoxicity (chronic liver disease) [1]: 0
Hepatotoxicity (comment) [2]: HYPERBILIRUBINEMIE
Hepatotoxicity (benign tumour) [3]: 0
Hepatotoxicity (mechanism) [4]: Dose-dependant
Hepatotoxicity (acute) [5]: 34%
Hepatotoxicity (severe hepatitis) [6]: 0
Hepatotoxicity (choleostasis) [7]: 2
Hepatotoxicity (association with vascular disease) [8]: 0
Hepatotoxicity (time to onset) [9]: 2 days - 2 months
Hepatotoxicity (steatosis) [10]: 0
Hepatotoxicity (acute) [11]: 19
Hepatotoxicity (cytolytic) [12]: 0
Hepatotoxicity (moderate) [13]: 12
Hepatotoxicity (cirrhosis) [14]: 0
Hepatotoxicity (moderate) [15]: 50%
Hepatotoxicity (granulomatous hepatitis) [16]: 0
Hepatotoxicity (malignant tumour) [17]: 0

COc1c(N2CCNC(C)C2)c(F)cc2c(=O)c(C(=O)O)cn(C3CC3)c12 (centres undefined) [GATIFLOXACIN]
Hepatotoxicity (chronic liver disease) [1]: 1
Hepatotoxicity (comment) [2]: CHOLESTASE_PROLONGEE DUCTOPENIE
Hepatotoxicity (benign tumour) [3]: 0
Hepatotoxicity (mechanism) [4]: Allergic
Hepatotoxicity (acute) [5]: 0%
Hepatotoxicity (severe hepatitis) [6]: 1
Hepatotoxicity (choleostasis) [7]: 2
Hepatotoxicity (association with vascular disease) [8]: 0
Hepatotoxicity (time to onset) [9]: 2 days - 8 days
Hepatotoxicity (steatosis) [10]: 2
Hepatotoxicity (acute) [11]: 3
Hepatotoxicity (cytolytic) [12]: 2
Hepatotoxicity (moderate) [13]: 18
Hepatotoxicity (cirrhosis) [14]: 0
Hepatotoxicity (moderate) [15]: 6.5%
Hepatotoxicity (granulomatous hepatitis) [16]: 0
Hepatotoxicity (malignant tumour) [17]: 0

Cc1ccc(C)c(OCCCC(C)(C)C(=O)O)c1 [GEMFIBROZIL]
Hepatotoxicity (chronic liver disease) [1]: 0
Hepatotoxicity (comment) [2]: I/LOVASTATINE
Hepatotoxicity (benign tumour) [3]: 0
Hepatotoxicity (mechanism) [4]: Dose-dependant
Hepatotoxicity (acute) ([5]; Liver): 0%
Hepatotoxicity (severe hepatitis) ([6]; Liver): 0
Hepatotoxicity (choleostasis) [7]: 0
Hepatotoxicity (association with vascular disease) [8]: 0
Hepatotoxicity (time to onset) [9]: 9 days - 12 days
Hepatotoxicity (steatosis) [10]: 1
Hepatotoxicity (acute) [11]: 1
Hepatotoxicity (cytolytic) [12]: 1
Hepatotoxicity (moderate) [13]: 24
Hepatotoxicity (cirrhosis) [14]: 0
Hepatotoxicity (moderate) ([15]; Liver): 10%
Hepatotoxicity (granulomatous hepatitis) [16]: 0
Hepatotoxicity (malignant tumour) [17]: 0

CCC(C)n1ncn(-c2ccc(N3CCN(c4ccc(OCC5COC(Cn6cncn6)(c6ccc(Cl)cc6Cl)O5)cc4)CC3)cc2)c1=O (centres undefined) [ITRACONAZOLE]
Hepatotoxicity (chronic liver disease) [1]: 0
Hepatotoxicity (comment) [2]: CHOLANGITE DUCTOPENIE HNF
Hepatotoxicity (benign tumour) [3]: 1
Hepatotoxicity (mechanism) [4]: Dose-dependant
Hepatotoxicity (acute) [5]: 30%
Hepatotoxicity (severe hepatitis) [6]: 1
Hepatotoxicity (choleostasis) [7]: 10
Hepatotoxicity (association with vascular disease) [8]: 0
Hepatotoxicity (time to onset) [9]: 5 days - 7 months
Hepatotoxicity (steatosis) [10]: 1
Hepatotoxicity (acute) [11]: 18
Hepatotoxicity (cytolytic) [12]: 10
Hepatotoxicity (moderate) [13]: 55
Hepatotoxicity (cirrhosis) [14]: 0
Hepatotoxicity (moderate) [15]: 91.7%
Hepatotoxicity (granulomatous hepatitis) [16]: 0
Hepatotoxicity (malignant tumour) [17]: 0

Nc1nnc(-c2cccc(Cl)c2Cl)c(N)n1 [LAMOTRIGINE]
Hepatotoxicity (chronic liver disease) [1]: 0
Hepatotoxicity (comment) [2]: DUCTOPENIE CHOLESTASE_PROLONGEE
Hepatotoxicity (benign tumour) [3]: 0
Hepatotoxicity (mechanism) [4]: Allergic
Hepatotoxicity (acute) [5]: 0%
Hepatotoxicity (severe hepatitis) [6]: 9
Hepatotoxicity (choleostasis) [7]: 1
Hepatotoxicity (association with vascular disease) [8]: 0
Hepatotoxicity (time to onset) [9]: 5 days - 3 months
Hepatotoxicity (steatosis) [10]: 0
Hepatotoxicity (acute) [11]: 17
Hepatotoxicity (cytolytic) [12]: 12
Hepatotoxicity (moderate) [13]: 7
Hepatotoxicity (cirrhosis) [14]: 0
Hepatotoxicity (moderate) [15]: 7.7%
Hepatotoxicity (granulomatous hepatitis) [16]: 0
Hepatotoxicity (malignant tumour) [17]: 0

NCCCC[C@H](N[C@@H](CCc1ccccc1)C(=O)O)C(=O)N1CCC[C@H]1C(=O)O [LISINOPRIL ANHYDROUS]
Hepatotoxicity (chronic liver disease) [1]: 1
Hepatotoxicity (comment) [2]: AC_ANTI-ML RC/LISINOPRIL
Hepatotoxicity (benign tumour) [3]: 0
Hepatotoxicity (mechanism) [4]: Allergic
Hepatotoxicity (acute) [5]: 0%
Hepatotoxicity (severe hepatitis) [6]: 1
Hepatotoxicity (choleostasis) [7]: 0
Hepatotoxicity (association with vascular disease) [8]: 0
Hepatotoxicity (time to onset) [9]: 9 days - 5 months
Hepatotoxicity (steatosis) [10]: 0
Hepatotoxicity (acute) [11]: 3
Hepatotoxicity (cytolytic) [12]: 2
Hepatotoxicity (moderate) [13]: 4
Hepatotoxicity (cirrhosis) [14]: 0
Hepatotoxicity (moderate) [15]: 7.7%
Hepatotoxicity (granulomatous hepatitis) [16]: 0
Hepatotoxicity (malignant tumour) [17]: 0

COc1ccc2[nH]cc(CCNC(C)=O)c2c1 [MELATONIN]
Hepatotoxicity (chronic liver disease) [1]: 0
Hepatotoxicity (comment) [2]: AC_ANTI-ML
Hepatotoxicity (benign tumour) [3]: 0
Hepatotoxicity (mechanism) [4]: Allergic
Hepatotoxicity (acute) [5]: 0%
Hepatotoxicity (severe hepatitis) [6]: 0
Hepatotoxicity (choleostasis) [7]: 0
Hepatotoxicity (association with vascular disease) [8]: 0
Hepatotoxicity (time to onset) [9]: 3 weeks
Hepatotoxicity (steatosis) [10]: 0
Hepatotoxicity (acute) [11]: 1
Hepatotoxicity (cytolytic) [12]: 1
Hepatotoxicity (moderate) [13]: 0
Hepatotoxicity (cirrhosis) [14]: 0
Hepatotoxicity (moderate) [15]: 0%
Hepatotoxicity (granulomatous hepatitis) [16]: 0
Hepatotoxicity (malignant tumour) [17]: 0

COc1ccc2cc([C@H](C)C(=O)O)ccc2c1 [NAPROXEN]
Hepatotoxicity (chronic liver disease) [1]: 0
Hepatotoxicity (comment) [2]: RC/FENOPROFENE
Hepatotoxicity (benign tumour) [3]: 0
Hepatotoxicity (mechanism) ([4]; Liver): Allergic
Hepatotoxicity (acute) ([5]; Liver): 1.1%
Hepatotoxicity (severe hepatitis) ([6]; Liver): 4
Hepatotoxicity (choleostasis) ([7]; Liver): 8
Hepatotoxicity (association with vascular disease) [8]: 0
Hepatotoxicity (time to onset) [9]: 2 days - 2 months
Hepatotoxicity (steatosis) [10]: 1
Hepatotoxicity (acute) [11]: 19
Hepatotoxicity (cytolytic) ([12]; Liver): 8
Hepatotoxicity (moderate) [13]: 13
Hepatotoxicity (cirrhosis) [14]: 0
Hepatotoxicity (moderate) ([15]; Liver): 9.5%
Hepatotoxicity (granulomatous hepatitis) ([16]; Liver): 1
Hepatotoxicity (malignant tumour) [17]: 0

Fc1ccc([C@@H]2CCNC[C@H]2COc2ccc3c(c2)OCO3)cc1 [PAROXETINE]
Hepatotoxicity (chronic liver disease) [1]: 1
Hepatotoxicity (comment) [2]: AC_ANTI-N I/ATRIUM* RC/DOSULEPINE
Hepatotoxicity (benign tumour) [3]: 0
Hepatotoxicity (mechanism) [4]: Allergic
Hepatotoxicity (acute) [5]: 2%
Hepatotoxicity (severe hepatitis) [6]: 1
Hepatotoxicity (choleostasis) [7]: 2
Hepatotoxicity (association with vascular disease) [8]: 0
Hepatotoxicity (time to onset) [9]: 6 days - 15 months
Hepatotoxicity (steatosis) [10]: 0
Hepatotoxicity (acute) [11]: 8
Hepatotoxicity (cytolytic) [12]: 5
Hepatotoxicity (moderate) [13]: 6
Hepatotoxicity (cirrhosis) [14]: 0
Hepatotoxicity (moderate) [15]: 11%
Hepatotoxicity (granulomatous hepatitis) [16]: 0
Hepatotoxicity (malignant tumour) [17]: 0
